Common to all, as to format: cell-based, human
Experiment [1] has as its system H460. In words: Cell cycle distribution by flow cytometry (PI). The note with it: H460, 1 μM, 24 hour exposure. On the procedure: The effect of RX-3117 on cell cycle regulation and cell death in human non-small cell lung cancer (NSCLC) cell lines A549 (adenocarcinoma), SW1573 (alveolar carcinoma) and SW1573/G- (SW1573 cell line resistant to gemcitabine) and H460 (large cell carcinoma) was assessed. The A549 and H460 cell lines were obtained from American Type Culture Collection (Manassas, Va., USA). The SW1573 cell line, obtained from Dr. Johan van Rijn (see Keiser et al., Cancer Research, 49:2988-2993 (1989)), also served as the parental cell line for SW1573/G-. A549, SW1573, and SW1573/G- and H460 were kept in exponential growth in T25 flasks (Greiner Bio-One GmbH, Frickenhausen, Germany) and cultured in Dulbecco's minimal essential medium (DMEM) or RPMI 1640 (A549) supplemented with 10% heat-inactivated fetal bovine serum (FBS) 1% streptomycin and penicillin 20 mM HEPES and maintained in 37° C. water saturated atmospheres of 5% CO2. For the cell cycle distribution, 1.5×10^5 cells were seeded in a T25 flask (Greiner Bio-One GmbH) and cultured for 72 hours after which 1 μM of RX-3117 was added and incubated for 24 hours. The cells were then harvested. After the treatment, the medium was collected in a 15 ml tube (Greiner Bio-One GmbH). […] The cells stained with the PI solution were analyzed by FACSCalibur™ (BD Biosciences, Mount View, Calif., USA). Data was analyzed with CellQuest™ Pro software.

In experiment [2] the test system is A549 cells. In words: Protein expression by western blot. The protocol:
(§1) The mechanism of cell cycle arrest was investigated by measuring cell cycle proteins expression using western blotting. The influence of RX-3117 on protein expression during different treatment conditions was analyzed by western blot. Cells were lysed using cell lysis buffer 1× (Cell Signaling, Danvers, Mass., USA) containing 4% protease inhibitor cocktail (Roche Diagnostics, Mannheim, Germany) on ice for 30 minutes and centrifuged for 10 minutes at 4° C. at 14,000 rpm. The protein containing supernatant was collected and the Bio-Rad assay was performed to determine protein amount as described in Lemos et al., Pharmacogenomics, 12(2):159-70 (2011). The following antibodies were used for protein expression: DNMT1 (Cell Signaling, 1:1000 #5032S), DNMT3A (Cell Signaling 1:1000 #2160S), DNMT3B (Abcam, 1; 1000), Chk2 (Cell Signaling 1:1000 #6334P), Chk1 (Cell Signaling 1:1000), p-CDC25C (Cell Signaling 1:1000 #4901S), Cdk1 (Cell Signaling 1:1000 #9112S), Cdk2 (Cell Signaling 1:1000 #2546S), wee1 (Cell Signaling 1:1000), 5139-γH2A.X (Cell Signaling, 1:1000), β actin (Sigma, 1:10,000), Caspase 9 (Cell Signaling, 1:1000), PARP (Roche 2003, 1:1000), p53 (Cell Signaling, 1:1000, #9282). The antibodies were diluted in 1:1 solution Rockland buffer (Rockland Inc., Philadelphia, Pa., USA) and PBS supplemented with 0.05% Tween® 20. The proteins were separated in 20% SDS-PAGE and transferred to a PVDF membrane. For fluorescent signal secondary antibodies goat anti-mouse InfraRedDye and goat anti-rabbit InfraRedDye were used. The proteins were detected by an Odyssey InfraRed Imager (Li-COR Bioscience, Lincoln, Nebr., USA).
(§2) The influence of RX-3117 on protein expression during different treatment conditions was analyzed by western blot. Cells were lysed using 1× cell lysis buffer (Cell Signaling, Danvers, Mass., USA) containing 4% protease inhibitor cocktail (Roche Diagnostics, Mannheim, Germany) on ice for 30 minutes and centrifuged for 10 minutes at 4° C. at 14,000 rpm. Bio-Rad assay was performed to determine protein amount in the collected supernatant as described earlier (Lemos C, Kathmann I, Giovannetti E, Calhau C, Jansen G and Peters G J: Impact of cellular folate status and epidermal growth factor receptor expression on BCRP/ABCG2-mediated resistance to gefitinib and erlotinib. Br J Cancer 100: 1120-7, 2009). The following antibodies were used for protein expression: γH2A.X (cat#9718, Cell Signaling, 1:1000), β-actin (Sigma, 1:10,000), Cdc25C Ser216 (cat#4901, Cell Signaling, 1:1000), Cdk1 Tyr15 (cat#9111, Cell Signaling, 1:1000), […] (cat#2197S, Cell Signaling, 1:1000), Histone 3 (cat#4499, Cell Signaling). Antibodies were diluted in 1:1 solution with Rockland buffer (Rockland Inc, Philadelphia, Pa.) and phosphate buffered saline (PBS) supplemented with 0.05 Tween 20. Proteins were separated in 20% SDS-PAGE gel and transferred to polyvinylidene difluoride (PVDF) membrane. For fluorescent signal secondary anti-bodies goat anti-mouse InfraRedDye and goat anti-rabbit InfraRedDye were used. Proteins were detected by an Odyssey InfraRed Imager (Li-COR Bioscience, Lincoln, Nebr.).
(In general: In western blotting, separated proteins are transferred to a membrane and probed.)

The test system of experiment [3] is SW1573 cells. In words: Protein expression by western blot. The protocol:
as §1, §2

Where [4] appears, read: SW1573, 10 μM, 48 hour exposure.
Where [5] appears, read: SW1573, 24 hour exposure to increasing concentrations.

The structures appear in SMILES notation.

As for `Nc1ccn([C@@H]2C(F)=C(CO)[C@@H](O)[C@H]2O)c(=O)n1` [RX-3117, 4-amino-1-((1S,4R,5S)-2-fluoro-4,5-dihydroxy-3-hydroxymethyl-cyclopent-2-enyl)-1H-pyrimidin-2-one], in experiment [1], the “accumulation of cells in the G1 phase” value is on record as “induced accumulation” and the “increased accumulation of cells in the G1 phase” value is on record as 20-40%. Also, the p53 expression levels result in experiment [2] (A549, 1 μM and 5 μM) was “increased”. In experiment [2] (A549, 5 μM, 24 hr exposure), the “expression of p16INK4A and MGMT” value was “increased”. Moreover, the “DNMT3A and DNMT3B expression levels” value in experiment [2] (A549, 1-75 μM) is on record as “increased”. For the same molecule, the “pro-caspase 9” value in experiment [2] (A549, 24 hour exposure to increasing concentrations) was “decreased”. Also, the “γH2A.X protein expression, combination with irradiation” value in experiment [3] (SW1573, 0.3 μM plus irradiation) was “more pronounced”. Moreover, in experiment [3] (SW1573, 0.3 μM, 48 h exposure), the “double strand break damage marker γH2A.X” value was “increased”. Moreover, in experiment [3] (SW1573, 5 μM, 24 hr exposure), the “expression of p16INK4A and MGMT” value was “increased”. Further, in experiment [3] (setting [4]), the “Chk1 and Cdk2 expression levels” value is on record as “increased”; the p-Cdc25C expression levels entry is “decreasing”. Moreover, in experiment [3] (setting [5]), the “cleaved PARP” value is reported as “induced cleaved PARP”, the “pro-caspase 9” value was “decreased” and the wee1 expression levels entry is given as “decreased”. Also, the “double-strand breaks (DSB), biomarker γH2A.X” value in experiment [3] (SW1573, 48 hour exposure) is “induced double-strand breaks”.
